# How the values were obtained:
# Assay type in all cases: in vivo
# [1] = system: Kentucky bluegrass (3D blend); test: Phytotoxicity via post emergence spray application (Table B2.6); conditions: 1 appl
# Description: The phytotoxicity of the compound of formula I to turfgrass species was tested. The compound was applied via post emergence spray to a range of warm and cool season turfgrass species at various rates and spray treatment treatment regimes. Percentage phytotoxicity assessments were taken at various timepoints.
# [2] = system: St. Augustinegrass v. Delmar; test: Phytotoxicity via granule application (Table B3.1)
# Description: (§1) The phytotoxicity of the compound of formula I to turfgrass species was tested. The compound was applied by distribution of granule formulations of formula I, post emergence, to turfgrass species at two rates. All treatments were watered-in 1 day after application. Percentage phytotoxicity assessments were taken at various timepoints.
# Two granule formulations were made and tested. Granule A is an inert granule formulation, comprising 99.06 wt % DG Lite 150 granules, 0.14 wt % compound of formula I, 0.50 wt % Sunspray 6N, and 0.30 wt % HiSil 233. The compound of formula I was added to the DG Lite granules while blending in a Continental Rollo-mixer.
# Sunspray 6N oil was then sprayed onto the granules, and HiSil added to dry excess liquid and improve granule flowability. The granules were blended in the mixer for 20-30 minutes until homogeneous, and passed through a −12/+60 mesh to remove over and under sized particles.
# Granule B is a fertiliser granule formulation, comprising 54.65 wt % urea, 6.63 wt % triple super phosphate, 4.95 wt % potassion chloride, 9.91 wt % huber clay, 7.22 wt % HiSil 233, 0.16 wt % compound of formula I, […] agnique ME 181, 2.07 wt % stepfac 8180, and 11.98 wt % water. […] The remaining HiSil was added and granules dried at 40-60° C., to remove excess liquid. Finally, the granules were passed through a −12/+60 mesh to remove over and under sized particles.
# Tall fescue v. Coronado = test: Phytotoxicity via granule application, various inert granules (Table B3.3); conditions: 8 DAT
# Description: as §1
# In Tables B3.3 and B3.4, the granular formulations tested were made by spraying the compound of formula I onto various inert granules. In each of these trials, the granule formulations were tested at a higher rate than the corresponding spray application
# [3] = system: Bermudagrass v. Tifway 419; test: Phytotoxicity in combination with safeners, post emergence spray (Table B4.3); conditions: no safener, 100 g ai/ha
# Description: The phytotoxicity to turfgrass of the compound of formula I in combination with various safeners was tested. The combinations were applied by post emergence spray application. Percentage phytotoxicity assessments were taken at various timepoints. The safeners tested in these trials were cloquintocet-mexyl, cyprosulfamide, a compound of formula 2.3, and isoxadifen-ethyl.
# Paspalum sp. = test: Weed control via post emergence spray, in common centipedegrass (Table B5.1)
# Description: The weed control efficacy of the compound of formula I was tested. The compound was applied via post emergence spray to a range of weeds, at various rates and spray treatment treatment regimes. Percentage weed control assessments were taken at various timepoints.
compound,measurement,setting,value
"COCCOCc1nc(C(F)(F)F)ccc1C(=O)C1=C(O)C2CCC(C2)C1=O (stereo not shown) [Formula I, 4-Hydroxy-3-[2-(2-methoxyethoxymethyl)-6-trifluoromethylpyridine-3-carbonyl]-bicyclo[3.2.1]oct-3-en-2-one]",% phytotoxicity,"[1]; 10 g ai/ha, 4 DAT",7.50%
same,% phytotoxicity,"[1]; 10 g ai/ha, 12 DAT",0.00%
same,% phytotoxicity,"[1]; 10 g ai/ha, 22 DAT",0.00%
same,% phytotoxicity,"[1]; 10 g ai/ha, 33 DAT",0.00%
same,% phytotoxicity,"[1]; 10 g ai/ha, 42 DAT",0.00%
same,% phytotoxicity,"[1]; 10 g ai/ha, 160 DAT",0.00%
same,% phytotoxicity,"[1]; 20 g ai/ha, 4 DAT",2.50%
same,% phytotoxicity,"[1]; 20 g ai/ha, 12 DAT",0.00%
same,% phytotoxicity,"[1]; 20 g ai/ha, 22 DAT",0.00%
same,% phytotoxicity,"[1]; 20 g ai/ha, 33 DAT",0.00%
same,% phytotoxicity,"[1]; 20 g ai/ha, 42 DAT",0.00%
same,% phytotoxicity,"[1]; 20 g ai/ha, 160 DAT",0.00%
same,% phytotoxicity,"[1]; 40 g ai/ha, 4 DAT",7.50%
same,% phytotoxicity,"[1]; 40 g ai/ha, 12 DAT",0.00%
same,% phytotoxicity,"[1]; 40 g ai/ha, 22 DAT",0.00%
same,% phytotoxicity,"[1]; 40 g ai/ha, 33 DAT",0.00%
same,% phytotoxicity,"[1]; 40 g ai/ha, 42 DAT",0.00%
same,% phytotoxicity,"[1]; 40 g ai/ha, 160 DAT",0.00%
same,% phytotoxicity,"[1]; 80 g ai/ha, 4 DAT",7.50%
same,% phytotoxicity,"[1]; 80 g ai/ha, 12 DAT",0.00%
same,% phytotoxicity,"[1]; 80 g ai/ha, 22 DAT",0.00%
same,% phytotoxicity,"[1]; 80 g ai/ha, 33 DAT",0.00%
same,% phytotoxicity,"[1]; 80 g ai/ha, 42 DAT",0.00%
same,% phytotoxicity,"[1]; 80 g ai/ha, 160 DAT",0.00%
same,% phytotoxicity,"[1]; 160 g ai/ha, 4 DAT",7.50%
same,% phytotoxicity,"[1]; 160 g ai/ha, 12 DAT",0.00%
same,% phytotoxicity,"[1]; 160 g ai/ha, 22 DAT",0.00%
same,% phytotoxicity,"[1]; 160 g ai/ha, 33 DAT",0.00%
same,% phytotoxicity,"[1]; 160 g ai/ha, 42 DAT",0.00%
same,% phytotoxicity,"[1]; 160 g ai/ha, 160 DAT",0.00%
same,% phytotoxicity,"[2]; Granule A (inert), 112 g ai/ha, 7 DAT",8.30%
same,% phytotoxicity,"[2]; Granule A (inert), 112 g ai/ha, 20 DAT",0.00%
same,% phytotoxicity,"[2]; Granule A (inert), 280 g ai/ha, 7 DAT",20.00%
same,% phytotoxicity,"[2]; Granule A (inert), 280 g ai/ha, 11 DAT",5.70%
same,% phytotoxicity,"[2]; Granule A (inert), 280 g ai/ha, 15 DAT",3.30%
same,% phytotoxicity,"[2]; Granule B (fertiliser), 112 g ai/ha, 7 DAT",23.30%
same,% phytotoxicity,"[2]; Granule B (fertiliser), 112 g ai/ha, 11 DAT",10.00%
same,% phytotoxicity,"[2]; Granule B (fertiliser), 112 g ai/ha, 15 DAT",5.00%
same,% phytotoxicity,"[2]; Granule B (fertiliser), 280 g ai/ha, 11 DAT",20.00%
same,% phytotoxicity,"Tall fescue v. Coronado; Agsorb LUM GA granule, 680 g ai/ha",23.8%
same,% phytotoxicity,"Tall fescue v. Coronado; Agsorb LUM MS granule, 680 g ai/ha",9.3%
same,% phytotoxicity,"Tall fescue v. Coronado; Agsorb RUM GA granule, 680 g ai/ha",18.8%
same,% phytotoxicity,"Tall fescue v. Coronado; Bio Dac granule, 680 g ai/ha",13.8%
same,% phytotoxicity,"Tall fescue v. Coronado; DG Lite granule, 680 g ai/ha",20.0%
same,% phytotoxicity,"Tall fescue v. Coronado; Eco Gran granule, 680 g ai/ha",20.0%
same,% phytotoxicity,"Tall fescue v. Coronado; Non dispersing extruded granules, 680 g ai/ha",21.3%
same,% phytotoxicity,"Tall fescue v. Coronado; Oil dry granule, 680 g ai/ha",12.5%
same,% phytotoxicity,"Tall fescue v. Coronado; Spray, 340 g ai/ha",18.8%
same,% phytotoxicity,[3]; 7 DAT,56.70%
same,% phytotoxicity,[3]; 11 DAT,38.30%
same,% phytotoxicity,[3]; 18 DAT,9.30%
same,% control,"Paspalum sp.; 1 appl, 140 g ai/ha, 5 DAT",16.67%
same,% control,"Paspalum sp.; 1 appl, 140 g ai/ha, 13 DAT",60.00%
same,% control,"Paspalum sp.; 1 appl, 140 g ai/ha, 21 DAT",55.00%
same,% control,"Paspalum sp.; 1 appl, 140 g ai/ha, 27 DAT",46.67%
same,% control,"Paspalum sp.; 1 appl, 140 g ai/ha, 35 DAT",21.67%
same,% control,"Paspalum sp.; 1 appl, 140 g ai/ha, 42 DAT",6.67%
same,% control,"Paspalum sp.; 1 appl, 140 g ai/ha, 61 DAT",13.33%
same,% control,"Paspalum sp.; 1 appl, 280 g ai/ha, 5 DAT",21.67%
same,% control,"Paspalum sp.; 1 appl, 280 g ai/ha, 13 DAT",71.67%
same,% control,"Paspalum sp.; 1 appl, 280 g ai/ha, 21 DAT",70.00%
same,% control,"Paspalum sp.; 1 appl, 280 g ai/ha, 27 DAT",60.00%
same,% control,"Paspalum sp.; 1 appl, 280 g ai/ha, 35 DAT",43.33%
same,% control,"Paspalum sp.; 1 appl, 280 g ai/ha, 42 DAT",20.00%
same,% control,"Paspalum sp.; 1 appl, 280 g ai/ha, 61 DAT",18.33%
same,% control,"Paspalum sp.; 2 appl, 140 g ai/ha, 5 DAT",20.00%
same,% control,"Paspalum sp.; 2 appl, 140 g ai/ha, 13 DAT",61.67%
same,% control,"Paspalum sp.; 2 appl, 140 g ai/ha, 21 DAT",61.67%
same,% control,"Paspalum sp.; 2 appl, 140 g ai/ha, 27 DAT",56.67%
same,% control,"Paspalum sp.; 2 appl, 140 g ai/ha, 35 DAT",83.33%
same,% control,"Paspalum sp.; 2 appl, 140 g ai/ha, 42 DAT",81.67%
same,% control,"Paspalum sp.; 2 appl, 140 g ai/ha, 61 DAT",70.00%
same,% control,"Paspalum sp.; 2 appl, 280 g ai/ha, 5 DAT",20.00%
same,% control,"Paspalum sp.; 2 appl, 280 g ai/ha, 13 DAT",68.33%
same,% control,"Paspalum sp.; 2 appl, 280 g ai/ha, 21 DAT",68.33%
same,% control,"Paspalum sp.; 2 appl, 280 g ai/ha, 27 DAT",58.33%
same,% control,"Paspalum sp.; 2 appl, 280 g ai/ha, 35 DAT",91.67%
same,% control,"Paspalum sp.; 2 appl, 280 g ai/ha, 42 DAT",95.00%
same,% control,"Paspalum sp.; 2 appl, 280 g ai/ha, 61 DAT",81.67%
